Tests used:
Alternaria solani = test: Alternaria solani/tomato/leaf disc (early blight); type: in vivo; conditions: 200 ppm; tomato leaf disks cv. Baby; inoculated 2 days after application; assessed 5-7 days after application
Method: Example B1: Alternaria solani/Tomato/Leaf Disc (Early Blight)
Tomato leaf disks cv. Baby are placed on agar in multiwell plates (24-well format) and sprayed with the formulated test compound diluted in water. The leaf disks are inoculated with a spore suspension of the fungus 2 days after application. The inoculated leaf disks are incubated at 23° C./21° C. (day/night) and 80% rh under a light regime of 12/12 h (light/dark) in a climate cabinet and the activity of a compound is assessed as percent disease control compared to untreated when an appropriate level of disease damage appears on untreated check disk leaf disks (5-7 days after application).

[1] = tested on: Botryotinia fuckeliana (Botrytis cinerea); test: Botryotinia fuckeliana (Botrytis cinerea)/liquid culture (gray mould), inhibition of growth; type: cell-based; conditions: liquid culture, Vogels broth, 24° C., 3-4 days after application, read-out: control of Botryotinia fuckeliana (inhibition of growth vs untreated)
Method: Example B2: Botryotinia fuckeliana (Botrytis cinerea)/Liquid Culture (Gray Mould)
(§1) Conidia of the fungus from cryogenic storage are directly mixed into nutrient broth (Vogels broth). After placing a (DMSO) solution of test compound into a microtiter plate (96-well format), the nutrient broth containing the fungal spores is added. The test plates are incubated at 24° C. and the inhibition of growth is determined photometrically 3-4 days after application.

[2] = tested on: Glomerella lagenarium (Colletotrichum lagenarium); test: Glomerella lagenarium (Colletotrichum lagenarium)/liquid culture (anthracnose), inhibition of growth; type: cell-based; conditions: Colletotrichum orbiculare, liquid culture, PDB, 24° C., 3-4 days after application, read-out: control of Glomerella lagenarium (inhibition of growth vs untreated)
Method: Example B3: Glomerella lagenarium (Colletotrichum lagenarium)/Liquid Culture (Anthracnose)
as §1, with “(PDB potato dextrose” for “(Vogels”, “measured” for “determined”

[3] = tested on: Blumeria graminis f. sp. tritici (Erysiphe graminis f. sp. tritici); test: Blumeria graminis f. sp. tritici/wheat/leaf disc preventative (powdery mildew on wheat); type: in vivo; conditions: 200 ppm, wheat leaf segments cv. Kanzler, inoculated 1 day after application, assessed 6-8 days after application
Method: Example B4: Blumeria graminis f. Sp. Tritici (Erysiphe graminis f. Sp. Tritici)/Wheat/Leaf Disc Preventative (Powdery Mildew on Wheat)
Wheat leaf segments cv. Kanzler are placed on agar in a multiwell plate (24-well format) and sprayed with the formulated test compound diluted in water. The leaf disks are inoculated by shaking powdery mildew infected plants above the test plates 1 day after application. The inoculated leaf disks are incubated at 20° C. and 60% rh under a light regime of 24 h darkness followed by 12 h light/12 h darkness in a climate chamber and the activity of a compound is assessed as percent disease control compared to untreated when an appropriate level of disease damage appears on untreated check leaf segments (6-8 days after application).

Fusarium culmorum [4] = test: microbe, parasite or virus in culture; type: cell-based; conditions: read-out: control of Fusarium culmorum (inhibition of growth vs untreated)
[5] = tested on: Phaeosphaeria nodorum (Septoria nodorum); test: Phaeosphaeria nodorum (Septoria nodorum)/wheat/leaf disc preventative (glume blotch); type: in vivo; conditions: 200 ppm, wheat leaf segments cv. Kanzler, inoculated 2 days after application, assessed 5-7 days after application
Method: Example B7: Phaeosphaeria nodorum (Septoria nodorum)/Wheat/Leaf Disc Preventative (Glume Blotch)
(§2) Wheat leaf segments cv. Kanzler are placed on agar in a multiwell plate (24-well format) and sprayed with the formulated test compound diluted in water. The leaf disks are inoculated with a spore suspension of the fungus 2 days after application. The inoculated test leaf disks are incubated at 20° C. and 75% rh under a light regime of 12 h light/12 h darkness in a climate cabinet and the activity of a compound is assessed as percent disease control compared to untreated when an appropriate level of disease damage appears in untreated check leaf disks (5-7 days after application).

[6] = tested on: Monographella nivalis (Microdochium nivale); test: Monographella nivalis (Microdochium nivale)/liquid culture (foot rot cereals), inhibition of growth; type: cell-based; conditions: liquid culture, PDB, 24° C., 4-5 days after application, read-out: control of Monographella nivalis (inhibition of growth vs untreated)
Method: Example B8: Monographella nivalis (Microdochium nivale)/Liquid Culture (Foot Rot Cereals)
as §1, with “(PDB potato dextrose” for “(Vogels”, “4-5” for “3-4”

[7] = tested on: Mycosphaerella arachidis (Cercospora arachidicola); test: Mycosphaerella arachidis (Cercospora arachidicola)/liquid culture (early leaf spot), inhibition of growth; type: cell-based; conditions: liquid culture, PDB, 24° C., 4-5 days after application, read-out: control of Mycosphaerella arachidis (inhibition of growth vs untreated)
Method: Example B9: Mycosphaerella arachidis (Cercospora arachidicola)/Liquid Culture (Early Leaf Spot)
as §1, with “(PDB potato dextrose” for “(Vogels”, “4-5” for “3-4”

Pyrenophora teres = test: Pyrenophora teres/barley/leaf disc preventative (net blotch); type: in vivo; conditions: 200 ppm, barley leaf segments cv. Hasso, inoculated 2 days after application, assessed 5-7 days after application
Method: Example B10: Pyrenophora teres/Barley/Leaf Disc Preventative (Net Blotch)
as §2, with “Barley” for “Wheat”, “Hasso” for “Kanzler”, “segments” for “disks”, “inoculated” for “inoculated test”, “65%” for “75%”, “as” for “as percent”

[8] = tested on: Mycosphaerella graminicola (Septoria tritici); test: Mycosphaerella graminicola (Septoria tritici)/liquid culture (Septoria blotch), inhibition of growth; type: cell-based; conditions: Zymoseptoria tritici, liquid culture, PDB, 24° C., 4-5 days after application, read-out: control of Mycosphaerella graminicola (inhibition of growth vs untreated)
Method: Example B12: Mycosphaerella graminicola (Septoria tritici)/Liquid Culture (Septoria Blotch)
as §1, with “(PDB potato dextrose” for “(Vogels”, “4-5” for “3-4”

Plasmopara viticola = type: in vivo; conditions: 200 ppm; grape vine leaf disks; preventative, inoculated 1 day after application; assessed 6-8 days after application
Phytophthora infestans = type: in vivo; conditions: 200 ppm; tomato leaf disks; preventative, inoculated 1 day after application; assessed 5-7 days after application
Sclerotinia sclerotiorum = test: Sclerotinia sclerotiorum/liquid culture (cottony rot), inhibition of growth; type: cell-based; conditions: liquid culture (mycelia fragments), PDB, 24° C., 3-4 days after application, read-out: control of Sclerotinia sclerotiorum (inhibition of growth vs untreated)
Method: Example B11: Sclerotinia sclerotiorum/Liquid Culture (Cottony Rot)
as §1, with “Mycelia fragments of a newly grown liquid culture” for “Conidia”, “fungus” for “fungus from cryogenic storage”, “(PDB potato dextrose” for “(Vogels”, “format)” for “format),”, “material” for “spores”

Fusarium culmorum [9] = type: in vivo; conditions: 200 ppm; wheat spikelets cv. Monsun; preventative, inoculated 1 day after application; assessed 6-8 days after application
[10] = tested on: Gibberella zeae (Fusarium graminearum); type: in vivo; conditions: 200 ppm; wheat spikelets cv. Monsun; preventative, inoculated 1 day after application; assessed 6-8 days after application

Row | SMILES | control of Alternaria solani (percent disease control compared to untreated) (Alternaria solani) | inhibition of growth at 20 ppm [1] | inhibition of growth at 20 ppm [2] | control of Blumeria graminis f. sp. tritici (percent disease control compared to untreated) [3] | inhibition of growth at 20 ppm (Fusarium culmorum [4]) | control of Phaeosphaeria nodorum (percent disease control compared to untreated) [5] | inhibition of growth at 20 ppm [6] | inhibition of growth at 20 ppm [7] | control of Pyrenophora teres (disease control compared to untreated) (Pyrenophora teres) | inhibition of growth at 20 ppm [8] | control of Plasmopara viticola (percent disease control compared to untreated) (Plasmopara viticola) | control of Phytophthora infestans (percent disease control compared to untreated) (Phytophthora infestans) | inhibition of growth at 20 ppm (Sclerotinia sclerotiorum) | control of Fusarium culmorum (percent disease control compared to untreated) (Fusarium culmorum [9]) | control of Gibberella zeae (percent disease control compared to untreated) [10]
1 | Cn1cc(C(C)(CNC(=O)c2cn(-c3ccc(F)cc3F)nn2)c2cccc(Cl)n2)cn1 (stereo not shown) [Compound P-1, N-[2-(6-chloro-2-pyridyl)-2-(1-methylpyrazol-4-yl)propyl]-1-(2,4-difluorophenyl)triazole-4-carboxamide] | at least 80% | ≥ 80% | ≥ 80% | at least 80% | ≥ 80% | at least 80% | ≥ 80% | ≥ 80% | at least 80% | ≥ 80% | at least 80% |  |  |  | 
2 | Cn1cc(C(C)(CNC(=O)c2cnn(-c3ccc(F)cc3F)n2)c2cccc(C#N)n2)cn1 (stereo not shown) [Compound P-2, N-[2-(6-cyano-2-pyridyl)-2-(1-methylpyrazol-4-yl)propyl]-2-(2,4-difluorophenyl)triazole-4-carboxamide] |  |  |  | at least 80% |  |  |  |  |  |  | at least 80% | at least 80% |  |  | 
3 | Cn1cc(C(C)(CNC(=O)c2cnn(-c3ccc(F)cc3F)n2)c2cccc(Cl)n2)cn1 (stereo not shown) [Compound P-3, N-[2-(6-chloro-2-pyridyl)-2-(1-methylpyrazol-4-yl)propyl]-2-(2,4-difluorophenyl)triazole-4-carboxamide] | at least 80% |  |  |  |  |  |  |  | at least 80% |  |  |  |  |  | 
4 | Cn1cc(C(C)(CNC(=O)c2nnn(-c3ccc(F)cc3F)n2)c2cccc(C#N)n2)cn1 (stereo not shown) [Compound P-5, N-[2-(6-cyano-2-pyridyl)-2-(1-methylpyrazol-4-yl)propyl]-2-(2,4-difluorophenyl)tetrazole-5-carboxamide] | at least 80% | ≥ 80% | ≥ 80% | at least 80% |  | at least 80% | ≥ 80% | ≥ 80% | at least 80% | ≥ 80% |  |  | ≥ 80% |  | 
5 | Cn1cc(C(C)(CNC(=O)c2nnn(-c3ccc(F)cc3F)n2)c2cccc(Cl)n2)cn1 (stereo not shown) [Compound P-6, N-[2-(6-chloro-2-pyridyl)-2-(1-methylpyrazol-4-yl)propyl]-2-(2,4-difluorophenyl)tetrazole-5-carboxamide] | at least 80% | ≥ 80% | ≥ 80% | at least 80% | ≥ 80% | at least 80% | ≥ 80% | ≥ 80% | at least 80% | ≥ 80% |  |  | ≥ 80% | at least 80% | 
6 | Cn1cc(C(C)(CNC(=O)c2cn(-c3ncc(F)cc3F)nn2)c2cccc(Cl)n2)cn1 (stereo not shown) [Compound P-7, N-[2-(6-chloro-2-pyridyl)-2-(1-methylpyrazol-4-yl)propyl]-1-(3,5-difluoro-2-pyridyl)triazole-4-carboxamide] | at least 80% | ≥ 80% | ≥ 80% | at least 80% | ≥ 80% | at least 80% | ≥ 80% | ≥ 80% | at least 80% | ≥ 80% |  |  |  |  | at least 80%
7 | Cn1cc(C(C)(CNC(=O)c2cn(-c3ccc(F)cc3F)nn2)c2cccc(Br)n2)cn1 (stereo not shown) [Compound P-8, N-[2-(6-bromo-2-pyridyl)-2-(1-methylpyrazol-4-yl)propyl]-1-(2,4-difluorophenyl)triazole-4-carboxamide] | at least 80% | ≥ 80% | ≥ 80% | at least 80% | ≥ 80% | at least 80% | ≥ 80% | ≥ 80% | at least 80% | ≥ 80% |  |  |  |  | 
8 | Cn1cc(C(C)(CNC(=O)c2cn(-c3ccc(F)cc3F)nn2)c2cccc(C#N)n2)cn1 (stereo not shown) [Compound P-9, N-[2-(6-cyano-2-pyridyl)-2-(1-methylpyrazol-4-yl)propyl]-1-(2,4-difluorophenyl)triazole-4-carboxamide] |  |  |  | at least 80% |  | at least 80% | ≥ 80% |  | at least 80% | ≥ 80% |  |  |  |  | 

From patent US20260347337A1, “MICROBIOCIDAL PYRAZOLE DERIVATIVES” (priority 2022, published 2026)
